Reference: patent publication US5455351A, “Retroviral protease inhibiting piperazine compounds” (Abbott Laboratories, priority 1993, dated 1995)

Key:
[1] = Viability (LC50) of MT4 cells; type: cell-based; details: human, read-out: LC50 (concentration of compound at which 50% of the cells remain viable)
Excerpt: (§1) The anti-HIV activity of the compounds of the invention can be determined in MT4 cells according to the procedure of Kempf, et. al. (Antimicrob. Agents Chemother. 1991, 35, 2209). The IC50 is the concentration of compound that gives 50% inhibition of the cytopathic effect of HIV. The LC50 is the concentration of compound at which 50% of the cells remain viable.

[2] = system: HIV-13B; experiment: Antiviral activity: inhibition of the cytopathic effect of HIV in MT4 cells; type: cell-based; details: Human immunodeficiency virus 1; HIV-13B in MT4 cells; read-out: IC50 (concentration of compound that gives 50% inhibition of the cytopathic effect of HIV)
Excerpt: as §1

[3] = biological target: T1, HIV-1 protease (HIV-1 M:B_HXB2R, UniProt P04585); experiment: Fluorogenic Assay for Screening Inhibitors of HIV Protease; type: biochemical; details: inhibitor concentration 0.5 nanomolar; pH 4.5; 30° C.; 1.3 μM fluorogenic substrate; read-out: Percent Inhibition
T1 construct: fluorogenic DABCYL/EDANS peptide substrate
Description: The inhibitory potency of the compounds of the invention can be determined by the following method.
A compound of the invention is dissolved in DMSO and a small aliquot further diluted with DMSO to 100 times the final concentration desired for testing. The reaction is carried out in a 6×50 mm tube in a total volume of 300 microliters. The final concentrations of the components in the reaction buffer are: 125 mM sodium acetate, 1 M sodium chloride, 5 mM dithiothreitol, 0.5 mg/ml bovine serum albumin, 1.3 μM fluorogenic substrate, 2% (v/v) dimethylsulfoxide, pH 4.5. After addition of inhibitor, the reaction mixture is placed in the fluorometer cell holder and incubated at 30° C. for several minutes. The reaction is initiated by the addition of a small aliquot of cold HIV protease. The fluorescence intensity (excitation 340 nm, emmision 490 nM) is recorded as a function of time. The reaction rate is determined for the first six to eight minutes. The observed rate is directly proportional to the moles of substrate cleaved per unit time. The percent inhibition is 100 X (1 -(rate in presence of inhibitor)/(rate in absence of inhibitor)).
Fluorogenic substrate: DabcyI-Ser-GIn-Asn-Tyr-Pro-Ile-VaI-GIn-EDANS wherein DABCYL=4-(4-dimethylamino-phenyl)azobenzoic acid and EDANS=5-((2-aminoethyl)amino)-naphthalene-1-sulfonic acid.

- IC50 [2]: 0.016 µM
- inhibition at 0.0005 µM [3]: 61%
Compound: CC(C)(C)NC(=O)[C@@H]1CN(Cc2cncs2)CCN1C[C@@H](O)C[C@@H](Cc1ccccc1)C(=O)N[C@H]1c2ccccc2C[C@H]1O [Example 1R, (1S,2R,2'R,4'S,2"S)-1-((2-Benzyl-5-(((2-(t-butyl)amino)carbonyl)-4-((thiazol-5-yl)methyl)piperazin-1-yl)-4-hydroxypentanoyl)amino)indan-2-ol]
- CC50 [1]: > 100 µM
